Data from ChEMBL document CHEMBL3885881, “DrugMatrix”.

Species on record: Rattus norvegicus
Test: DrugMatrix - Regimen: Daily Repeat
Format: toxicity, organism-based, Sprague-Dawley
Design: regimen Daily Repeat, gender Male, age 6-8 weeks
Conditions: in vivo, po, 400 mg/kg, route oral GAVAGE, dose level High, vehicle 100 % WATER; for ABSOLUTE BASOPHIL / ABSOLUTE EOSINOPHIL / ABSOLUTE LYMPHOCYTE / ABSOLUTE MONOCYTE / ABSOLUTE SEGMENTED NEUTROPHIL / BASOPHIL / EOSINOPHIL / ERYTHROCYTE COUNT / HEMATOCRIT / HEMOGLOBIN / LEUKOCYTE COUNT / LYMPHOCYTE / MEAN CORPUSCULAR HEMOGLOBIN / MEAN CORPUSCULAR HEMOGLOBIN CONCENTRATION / MEAN CORPUSCULAR VOLUME / MONOCYTE / NEUTROPHIL / NUCLEATED RED BLOOD CELLS / PLATELET COUNT: tissue Blood; for ALANINE AMINOTRANSFERASE / ALBUMIN / ALKALINE PHOSPHATASE / ASPARTATE AMINOTRANSFERASE / BLOOD UREA NITROGEN / CARBON DIOXIDE / CHLORIDE / CHOLESTEROL / CREATINE PHOSPHOKINASE / CREATININE / GLUCOSE / LACTATE DEHYDROGENASE / LIPASE / PHOSPHORUS / POTASSIUM / SODIUM / TOTAL BILIRUBIN / TOTAL PROTEIN / URIC ACID: tissue Plasma

## CCOC(=O)n1ccn(C)c1=S [CARBIMAZOLE]
72 h, time 3 day
  ABSOLUTE BASOPHIL: 0 CELLS/uL
  ABSOLUTE EOSINOPHIL: 0 CELLS/uL
  ABSOLUTE LYMPHOCYTE: 9627.33 CELLS/uL
  ABSOLUTE MONOCYTE: 0 CELLS/uL
  ABSOLUTE SEGMENTED NEUTROPHIL: 872.67 CELLS/uL
  BASOPHIL: 0%
  EOSINOPHIL: 0%
  ERYTHROCYTE COUNT: 5.66 x10E6/uL
  HEMATOCRIT: 35.3%
  HEMOGLOBIN: 14.1 G/DL
  LEUKOCYTE COUNT: 10.5 x10E3/uL
  LYMPHOCYTE: 91.67%
  MEAN CORPUSCULAR HEMOGLOBIN: 24.9 pg
  MEAN CORPUSCULAR HEMOGLOBIN CONCENTRATION: 40.03 G/DL
  MEAN CORPUSCULAR VOLUME: 62.3 fL
  MONOCYTE: 0%
  NEUTROPHIL: 8.33%
  NUCLEATED RED BLOOD CELLS: 0 /100WBC
  PLATELET COUNT: 1182.33 x10E3/uL
  ALANINE AMINOTRANSFERASE: 38.33 u/L
  ALBUMIN: 4.2 G/DL
  ALKALINE PHOSPHATASE: 421 u/L
  ASPARTATE AMINOTRANSFERASE: 56 u/L
  BLOOD UREA NITROGEN: 12.67 mg/dL
  CARBON DIOXIDE: 25.67 mmol/L
  CHLORIDE: 101.67 MEQ/L
  CHOLESTEROL: 82 mg/dL
  CREATINE PHOSPHOKINASE: 338 u/L
  CREATININE: 0.17 mg/dL
  GLUCOSE: 149 mg/dL
  LACTATE DEHYDROGENASE: 171 u/L
  LIPASE: 9.67 u/L
  PHOSPHORUS: 11.57 mg/dL
  POTASSIUM: 6.88 MEQ/L
  SODIUM: 143.1 MEQ/L
  TOTAL BILIRUBIN: 0.2 mg/dL
  TOTAL PROTEIN: 5.97 G/DL
  URIC ACID: 1.73 mg/dL
120 h, time 5 day
  ABSOLUTE BASOPHIL: 0 CELLS/uL
  ABSOLUTE EOSINOPHIL: 0 CELLS/uL
  ABSOLUTE LYMPHOCYTE: 9558.67 CELLS/uL
  ABSOLUTE MONOCYTE: 45.33 CELLS/uL
  ABSOLUTE SEGMENTED NEUTROPHIL: 1996 CELLS/uL
  BASOPHIL: 0%
  EOSINOPHIL: 0%
  ERYTHROCYTE COUNT: 5.99 x10E6/uL
  HEMATOCRIT: 37.23%
  HEMOGLOBIN: 15.17 G/DL
  LEUKOCYTE COUNT: 11.6 x10E3/uL
  LYMPHOCYTE: 82.33%
  MEAN CORPUSCULAR HEMOGLOBIN: 25.33 pg
  MEAN CORPUSCULAR HEMOGLOBIN CONCENTRATION: 40.73 G/DL
  MEAN CORPUSCULAR VOLUME: 62.13 fL
  MONOCYTE: 0.33%
  NEUTROPHIL: 17.33%
  NUCLEATED RED BLOOD CELLS: 0 /100WBC
  PLATELET COUNT: 1416 x10E3/uL
  ALANINE AMINOTRANSFERASE: 37.33 u/L
  ALBUMIN: 3.73 G/DL
  ALKALINE PHOSPHATASE: 235 u/L
  ASPARTATE AMINOTRANSFERASE: 30.33 u/L
  BLOOD UREA NITROGEN: 19 mg/dL
  CARBON DIOXIDE: 20.67 mmol/L
  CHLORIDE: 105.33 MEQ/L
  CHOLESTEROL: 80 mg/dL
  CREATINE PHOSPHOKINASE: 198 u/L
  CREATININE: 0.16 mg/dL
  GLUCOSE: 124.67 mg/dL
  LACTATE DEHYDROGENASE: 434.67 u/L
  LIPASE: 9.33 u/L
  PHOSPHORUS: 11.57 mg/dL
  POTASSIUM: 6.35 MEQ/L
  SODIUM: 144.43 MEQ/L
  TOTAL BILIRUBIN: 0.17 mg/dL
  TOTAL PROTEIN: 5.8 G/DL
  URIC ACID: 1.57 mg/dL
